Experimental data as given in article PMC5162400, “Discovery of novel inhibitors disrupting HIF-1α/von Hippel–Lindau interaction through shape-based screening and cascade docking” (PeerJ, 2016).

What was measured:
pVHL [1] = biological target: T1, pVHL (Homo sapiens, UniProt P40337); design: method as in earlier work; details: native ligands of pVHL crystal complexes, labelled by PDB ID, ref Buckley et al., 2012b, Van-Molle et al., 2012a, Dias et al., 2014, Galdeano et al., read-out: Kd of native ligand; cited from earlier work
T1 sequence (P40337 whole entry): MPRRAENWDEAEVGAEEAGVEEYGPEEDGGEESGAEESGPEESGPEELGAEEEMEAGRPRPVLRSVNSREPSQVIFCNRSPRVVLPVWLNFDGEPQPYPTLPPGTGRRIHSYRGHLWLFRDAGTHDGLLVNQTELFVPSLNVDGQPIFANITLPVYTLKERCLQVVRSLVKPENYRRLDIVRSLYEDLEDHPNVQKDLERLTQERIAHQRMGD
T1 sequence (Q15369 whole entry partner): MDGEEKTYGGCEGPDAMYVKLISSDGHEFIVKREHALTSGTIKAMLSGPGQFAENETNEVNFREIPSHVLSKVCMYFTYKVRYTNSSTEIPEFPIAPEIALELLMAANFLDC
T1 sequence (Q15370 whole entry partner): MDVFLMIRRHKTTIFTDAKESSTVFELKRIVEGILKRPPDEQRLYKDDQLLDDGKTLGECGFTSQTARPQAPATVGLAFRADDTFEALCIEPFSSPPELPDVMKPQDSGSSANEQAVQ

pVHL [2] = biological target: T1, pVHL; test: Fluorescence polarization binding assay (FAM-DEALA-Hyp-YIPD displacement from V1-213CB); details: inhibition of HIF-1α/pVHL interaction, mean ± SEM
Protocol: The fluorescence intensities parallel (Intparallel) and perpendicular (Intperpedicular) to the plane of excitation were measured in black 96-well NBS assay plates (Greiner Microlon) at room temperature. The plate was then shaken for 1 min and centrifuged for 1 min. […] The inhibition percentage was determined by normalizing to maximum and minimum polarization and graphed against the log [VL].

Structure (SMILES) | Kd (pVHL [1]) [nM] | IC50 (pVHL [2]) [nM]
Cc1ncsc1-c1ccc(CNC(=O)C2CC(O)CN2C(=O)c2cccc(N)c2C)cc1 (stereo not drawn) [Compound 4B9K] | 700 | 
c1ccc(-c2ccc(-c3nc4ccc(-c5ccccc5)cc4o3)cc2)cc1 [Compound 6] |  | 102000 ± 6130
CC1=NN(c2ccccc2)C(=O)/C1=N\Nc1ccc(N2CCOCC2)cc1 [Compound 9] |  | 2000 ± 140
